27 compounds from ChEMBL document CHEMBL3352346, “Optimization of sphingosine-1-phosphate-1 receptor agonists: effects of acidic, basic, and zwitterionic chemotypes on pharmacokinetic and pharmacodynamic profiles” (J Med Chem, 2014) can be followed below.

Assay [1] has as its target Sphingosine 1-phosphate receptor 1 (Homo sapiens, UniProt P21453). The assay can be described thus: Agonist activity at human S1P1R expressed in RH7777 membranes assessed as [35S]GTPgammaS binding after 30 mins. Type of assay: functional, cell membranes. Background: GTPγS resists hydrolysis and so accumulates on activated G proteins.
For assay [2], the target named is Sphingosine 1-phosphate receptor 3 (Homo sapiens, UniProt Q99500). The assay can be described thus: Agonist activity at human S1P3R expressed in RBL membranes assessed as [35S]GTPgammaS binding after 30 mins. Format: functional, cell membranes.
Sphingosine 1-phosphate receptor 3, sequence (Q99500 whole entry): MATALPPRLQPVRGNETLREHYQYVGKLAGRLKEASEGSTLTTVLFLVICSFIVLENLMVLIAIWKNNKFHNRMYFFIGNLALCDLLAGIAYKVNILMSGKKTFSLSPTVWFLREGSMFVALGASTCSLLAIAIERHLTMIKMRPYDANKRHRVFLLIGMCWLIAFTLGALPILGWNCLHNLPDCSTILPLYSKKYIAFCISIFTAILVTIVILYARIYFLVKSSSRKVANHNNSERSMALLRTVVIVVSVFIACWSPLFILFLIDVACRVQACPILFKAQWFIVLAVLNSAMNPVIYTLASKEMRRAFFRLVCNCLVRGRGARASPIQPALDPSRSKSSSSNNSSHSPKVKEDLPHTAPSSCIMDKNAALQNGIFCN

Sphingosine 1-phosphate receptor 1, sequence (P21453 whole entry): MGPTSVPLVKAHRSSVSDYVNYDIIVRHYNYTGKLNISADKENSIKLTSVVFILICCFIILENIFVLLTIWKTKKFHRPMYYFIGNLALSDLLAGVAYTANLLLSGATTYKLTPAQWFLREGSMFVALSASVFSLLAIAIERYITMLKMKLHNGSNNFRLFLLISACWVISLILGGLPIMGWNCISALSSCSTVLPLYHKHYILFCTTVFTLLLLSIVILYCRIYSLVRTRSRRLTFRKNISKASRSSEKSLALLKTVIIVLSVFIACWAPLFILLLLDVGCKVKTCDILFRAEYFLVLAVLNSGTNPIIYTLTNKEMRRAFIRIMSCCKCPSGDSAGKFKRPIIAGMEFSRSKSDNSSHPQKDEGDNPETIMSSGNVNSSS

By EC50 is commonly meant the concentration needed to bring the measured effect to its halfway point. Regarding `CC(C)Oc1ccc(-c2nc(-c3ccc4c(c3)CN(CCC(=O)O)CCO4)no2)cc1C#N`, the EC50 is 50.1 nM in assay [1] and greater than 31600 nM in assay [2].

Consider `CC(C)Oc1ccc(-c2nc(-c3ccc4c(c3)CCCNC4)no2)cc1C#N`, for which the EC50 in assay [1] is 126 nM; in assay [2], greater than 31600 nM.

Take `CC(C)Oc1ccc(-c2nc(-c3ccc4c(c3)CNC(CCC(=O)O)CO4)no2)cc1Cl` (centres undefined): the half-maximal effective concentration (EC50) is 2.51 nM in assay [1] and 251 nM in assay [2].

For the compound `CC(C)Oc1ccc(-c2nc(-c3cccc4c3OCCNC4CCC(=O)O)no2)cc1Cl` (centres undefined), the half-maximal effective concentration (EC50) in assay [1] was 5.01 nM; in assay [2] it was greater than 31600 nM.

Take `CC(C)Oc1ccc(-c2nc(-c3ccc4c(c3)CCN(CCC(=O)O)C4)no2)cc1C#N`: the EC50 in assay [1] was 6.31 nM; in assay [2], 3980 nM.

Turning to `CC(C)Oc1ccc(-c2nc(-c3ccc4c(c3)CCNC4)no2)cc1C#N`, the figures for the EC50 in assay [1] and in assay [2] were 3.98 nM and 31600 nM, respectively.

Consider `CC(C)Oc1ccc(-c2nc(-c3cccc4c3OCCNC4)no2)cc1Cl`, for which the EC50 in assay [1] was 79.4 nM; in assay [2], greater than 31600 nM.

As to `CC(C)Oc1ccc(-c2nc(-c3cccc4c3CN(CCCC(=O)O)C4)no2)cc1C#N`, the EC50 in assay [1] was 398 nM; in assay [2], greater than 31600 nM.

As to `CC(C)Oc1ccc(-c2nc(-c3ccc4c(c3)CNCCO4)no2)cc1C#N`, the EC50 in assay [1] was 25.1 nM; in assay [2] it was 6310 nM.

For `CC(C)Oc1ccc(-c2nc(-c3cccc4c3CCNC4)no2)cc1Cl`, the concentration giving a half-maximal response (EC50) in assay [1] is 39.8 nM; in assay [2], 15800 nM.

Consider `CC(C)Oc1ccc(-c2nc(-c3ccc4c(c3)CN(CCC(=O)O)CCO4)no2)cc1Cl`, for which the figures for the EC50 in assay [1] and in assay [2] were 126 nM and 2000 nM, respectively.

`CC(C)Oc1ccc(-c2nc(-c3cccc4c3CNC4)no2)cc1Cl`: the EC50 in assay [1] is 7.94 nM; in assay [2], greater than 31600 nM.

For the compound `CC(C)Oc1ccc(-c2nc(-c3cccc4c3CN(CCC(=O)O)C4)no2)cc1Cl`, the values for the half-maximal effective concentration (EC50) in assay [1] and in assay [2] were 316 nM and 7940 nM, respectively.

`CC(C)Oc1ccc(-c2nc(-c3ccc4c(c3)CCCNC4)no2)cc1Cl`: the EC50 is 398 nM in assay [1] and greater than 31600 nM in assay [2].

`CC(C)Oc1ccc(-c2nc(-c3cccc4c3CN(CCCC(=O)O)C4)no2)cc1Cl`: the 50% effective concentration (EC50) in assay [1] is 501 nM; in assay [2] it was 2000 nM.

As for `CC(C)Oc1ccc(-c2nc(-c3ccc4c(c3)CNC(C(=O)O)CO4)no2)cc1Cl` (centres undefined), the 50% effective concentration (EC50) in assay [1] is 5.01 nM; in assay [2], 794 nM.

As to `CC(C)Oc1ccc(-c2nc(-c3ccc4c(c3)CCN(CCC(=O)O)CC4)no2)cc1Cl`, the EC50 in assay [1] is 7.94 nM; in assay [2], 10000 nM.

As to `CC(C)Oc1ccc(-c2nc(-c3cccc4c3CCCNC4)no2)cc1Cl`, the EC50 was 631 nM in assay [1] and greater than 31600 nM in assay [2].

On to `CC(C)Oc1ccc(-c2nc(-c3cccc4c3CCN(CC(=O)O)CC4)no2)cc1Cl`, for which the EC50 in assay [1] was 2510 nM; in assay [2], greater than 31600 nM.

Turning to `CC(C)Oc1ccc(-c2nc(-c3ccc4c(c3)CCN(CC(=O)O)CC4)no2)cc1C#N`, the EC50 is 3.98 nM in assay [1] and 2000 nM in assay [2].

Consider `CC(C)Oc1ccc(-c2nc(-c3ccc4c(c3)CNCCO4)no2)cc1Cl`, for which the values for the EC50 in assay [1] and in assay [2] were 126 nM and 15800 nM, respectively.

Consider `CC(C)Oc1ccc(-c2nc(-c3cccc4c3CCNCC4)no2)cc1Cl`, for which the EC50 in assay [1] was 15.8 nM; in assay [2], greater than 31600 nM.

On to `CC(C)Oc1ccc(-c2nc(-c3cccc4c3CCN(CC(=O)O)C4)no2)cc1C#N`, for which the results for the concentration giving a half-maximal response (EC50) in assay [1] and in assay [2] were 7.94 nM and greater than 31600 nM, respectively.

Regarding `CC(C)Oc1ccc(-c2nc(-c3cccc4c3OCCNC4CCCC(=O)O)no2)cc1Cl` (centres undefined), the EC50 is 10 nM in assay [1] and 25100 nM in assay [2].

For `CC(C)Oc1ccc(-c2nc(-c3ccc4c(c3)CN(CCCC(=O)O)CCO4)no2)cc1C#N`, the EC50 in assay [1] is 63.1 nM; in assay [2], 25100 nM.

On to `CC(C)Oc1ccc(-c2nc(-c3ccc4c(c3)OCCNC4)no2)cc1C#N`, for which the EC50 in assay [1] was 79.4 nM; in assay [2] it was greater than 31600 nM.

For `CC(C)Oc1ccc(-c2nc(-c3cccc4c3CCN(CCC(=O)O)CC4)no2)cc1Cl`, the EC50 in assay [1] was 158 nM; in assay [2], greater than 31600 nM.
